From patent US6388131B2, “Benzene compounds as antiproliferative and cholesterol lowering agents” (Tularik, Inc., priority 1997, dated 2002) come the findings set out here.

One assay has as its system HeLa cells. Put plainly: Inhibition of in vitro growth of HeLa cells (Alamar Blue uptake). Format: cell-based. Particulars: Homo sapiens; concentration required to inhibit by 50% the uptake of Alamar Blue by HeLa cell cultures. From the text: Compounds and compositions of a particular embodiment of the invention display specific toxicity to various types of cells, preferably exerting their cytotoxic effects by interacting with cellular tubulin, preferably covalently and irreversibly. Compounds and compositions may be evaluated in vitro for their ability to inhibit cell grow, for example, as described by Ahmed et al. (J. Immunol. Methods 1994, 170, 211). […] Established animal models to evaluate antiproliferative effects of compounds are known in the art. For example, compounds can be evaluated for their ability to inhibit the growth of human tumors grafted into immunodeficient mice using methodology similar to that described by Rygaard and Poylsen (Acta Pathol. Microbiol. Scand. 1969, 77, 758) and Giovanella and Fogh (Adv. Cancer Res. 1985, 44, 69).
Compounds were evaluated for their ability to inhibit in vitro the growth of HeLa cells, an immortal cell line derived from a human cervical carcinoma commonly used to evaluate the cytotoxicity of potential therapeutic agents. The following data reflect the cytotoxicity of selected examples of the present invention. The values given represent the concentration of test compound required to inhibit by 50% the uptake of Alamar Blue (Biosource International, Camarillo, Calif.) by HeLA cell cultures, which correlates directly with the overall levels of cellular metabolism in the culture, and is generally accepted as an appropriate′marker of cell growth. The test was conducted according to the method of Ahmed et al. (J. Immunol. Methods 1994, 170, 211).
(In general: The colour change of resazurin is a common sign of viable cells or microbes.)

Assay [1] deals with LDL receptor expression in HepG2 cells. The assay can be described thus: Increase of LDL receptor expression in HepG2 cells, western-blot analysis. It is filed as cell-based. To be noted: Homo sapiens, minimum concentration at which a maximal induction of LDL receptor levels was observed. On the procedure:
Compounds and compositions of a particular embodiment of the invention are capable of specifically regulating LDL receptor gene expression. Compounds may be evaluated in vitro for their ability to increase LDL receptor expression using western-blot analysis, for example, as described by Tam et al. (J. Biol. Chem. 1991, 266, 16764). Preferred such compounds and compositions provide ECmax of less than about 50 μM, preferably less than about 5 μM, more preferably less than about 0.5 μM, more preferably less than about 0.05 μM, and most preferably less than about 0.005 μM in this assay (see, e.g. Example 28 herein). Established animal models to evaluate hypocholesterolemic effects of compounds are known in the art. For example, compounds disclosed herein are shown to lower cholesterol levels in hamsters fed a high-cholesterol diet, using a protocol simllar to that described by Spady et al. (J. Clin. Invest. 1988, 81, 300), Evans et al. (J. Lipid Res. 1994, 35, 1634), and Lin et al (J. Med. Chem. 1995, 38, 277).
Certain compounds were evaluated for their ability to increase LDL receptor expression in HepG2 cells using western-blot analysis as described by Tam et al., (J. Biol. Chem., 1991, 266, 16764). […] In all cases, the level of induction was greater than that observed under lipid-free conditions (activated system) in the absence of the test compounds.

The term IC50 denotes the concentration needed to halve the response being measured.

`COc1ccc(NS(=O)(=O)c2cc(F)c(F)c(F)c2F)cc1O` [Example 21, 2,3,4,5-Tetrafluoro-1-[(3-hydroxy-4-methoxyphenyl)aminosulfonyl]benzene] gave a concentration for half-maximal inhibition (IC50) in the assay with HeLa cells of 150 nM. For the same compound, in assay [1], the EC (max) was found to be 0.5 µM. `COc1ccc(NS(=O)(=O)c2c(F)c(Cl)c(F)c(Cl)c2F)cc1O` [Example 9, 1,3-Dichloro-2,4,6-trifluoro-5-[(3-hydroxy-4-methoxyphenyl)aminosulfonyl]benzene]: the IC50 in the assay with HeLa cells was found to be 50 nM. The same compound yielded an EC (max) in assay [1] of 0.15 µM. In turn, `COc1ccc(NS(=O)(=O)c2ccc(F)c([N+](=O)[O-])c2)cc1` [Example 1, 4-Fluoro-1-[(4-methoxyphenyl)aminosulfonyl]-3-nitrobenzene] returned an EC (max) in assay [1] of 5 µM. Compound `COc1ccc(NS(=O)(=O)c2c(F)cc(F)c(F)c2F)cc1` [Example 19, 2,3,4,6-Tetrafluoro-1-[(4-methoxyphenyl)aminosulfonyl]benzene] returned an IC50 in the assay with HeLa cells of 5000 nM. The same compound gave an EC (max) in assay [1] of 15 µM. `COc1ccc(NS(=O)(=O)c2cc(F)c(F)c(F)c2)cc1` [Example 22, 3,4,5-Trifluoro-1-[(4-methoxyphenyl)aminosulfonyl]benzene] returned an IC50 in the assay with HeLa cells of 5000 nM. The same compound registered an EC (max) in assay [1] of 5 µM.

As to `COc1ccc(NS(=O)(=O)c2ccc(F)c([N+](=O)[O-])c2)cc1O` [Example 2, 4-Fluoro-1-[(3-hydroxy-4-methoxyphenyl)aminosulfonyl]-3-nitrobenzene], the IC50 with HeLa cells is 150 nM. Also, in assay [1], the EC (max) turned out to be 1.5 µM. Taken in the same sequence, the figures for `COc1ccc(NS(=O)(=O)c2cc(Br)c(F)c(F)c2F)cc1` [Example 10, 1-Bromo-2,3,4-trifluoro-5-[(4-methoxyphenyl)aminosulfonyl]benzene] were 500 nM and 1.5 µM. On the same counts, the results for `COc1ccc(NS(=O)(=O)c2c(F)c(F)c(Br)c(F)c2F)cc1` [Example 6, 1-Bromo-2,3,5,6-tetrafluoro-4-[(4-methoxyphenyl)aminosulfonyl]benzene] are 5000 nM and 50 µM. Take `COc1ccc(NS(=O)(=O)c2c(F)c(F)c(Cl)c(F)c2F)cc1` [Example 7, 1-Chloro-2,3,5,6-tetrafluoro-4-[(4-methoxyphenyl)aminosulfonyl]benzene]: half-maximal inhibition in the assay with HeLa cells (IC50) was put at 1500 nM. In assay [1], this compound displayed an EC (max) of 50 µM. The compound `COc1ccc(NS(=O)(=O)c2c(F)c(Cl)c(F)c(Cl)c2F)cc1` [Example 8, 1,3-Dichloro-2,4,6-trifluoro-5-[(4-methoxyphenyl)aminosulfony]benzene] yielded a concentration for half-maximal inhibition (IC50) in the assay with HeLa cells of 150 nM. The EC (max) in assay [1] was determined as 0.5 µM. Taken in the same sequence, the figures for `COc1ccc(NS(=O)(=O)c2c(F)c(F)c(F)c(F)c2Br)cc1O` [Example 3, 1-Bromo-3,4,5,6-tetrafluoro-2-[(3-hydroxy-4-methoxyphenyl)aminosulfonyl]benzene] were 50 nM and 0.15 µM. On the same counts, the results for `COc1ccc(NS(=O)(=O)c2cc(F)c(F)c(F)c2Br)cc1` [Example 11, 1-Bromo-4,5,6-trifluoro-2-[(4-methoxyphenyl)aminosulfonyl]benzene] are 500 nM and 1.5 µM. On the same counts, the results for `COc1ccc(NS(=O)(=O)c2c(F)c(F)c(F)c(Br)c2F)cc1` [Example 5] are 150 nM and 0.5 µM. In the assay on HeLa cells, `COc1ccc(NS(=O)(=O)c2cc(F)c(F)c(F)c2)cc1O` [Example 23, 3,4,5-Trifluoro-1-[(3-hydroxy-4-methoxyphenyl)aminosulfonyl]benzene] gave a 50% inhibitory concentration (IC50) of 1500 nM. As for `COc1ccc(CS(=O)(=O)c2c(F)c(F)c(F)c(F)c2F)cc1` [Example 24, 4-Methoxybenzyl Pentafluorophenyl Sulfone], the midpoint of inhibition in the assay with HeLa cells, the IC50, lay at 5000 nM. Besides, the EC (max) in assay [1] was 1.5 µM. Compound `COc1ccc(NS(=O)(=O)c2ccc(F)c(F)c2F)cc1O` [Example 17, 1-[(3-Hydroxy-4-methoxyphenyl)aminosulfonyl]-2,3,4-trifluorobenzene] came in with an IC50 in the assay on HeLa cells of 1500 nM. Turning to `COc1ccc(NS(=O)(=O)c2cc(F)c(F)c(F)c2F)cc1` [Example 20, 2,3,4,5-Tetrafluoro-1-[(4-methoxyphenyl)aminosulfonyl]benzene], in the assay on HeLa cells, 500 nM corresponded to half-maximal inhibition (IC50). For the same compound, the EC (max) in assay [1] came out at 1.5 µM. On the same counts, the results for `COc1ccc(NS(=O)(=O)c2c(F)c(F)c(F)c(F)c2Br)cc1` [Example 4, 1-Bromo-3,4,5,6-tetrafluoro-2-[(4-methoxyphenyl)aminosulfonyl]benzene] are 150 nM and 0.5 µM.
